Test results: article PMC9860728, “Identification of New N-methyl-piperazine Chalcones as Dual MAO-B/AChE Inhibitors” (Pharmaceuticals, 2023)

Legend:
BChE = BChE (Equus caballus, UniProt P81908); assay: biochemical; conditions: read-out: Residual Activities at 10 μM (%) BChE
Method: (§1) For measuring cholinesterase (ChE) activity, the Ellman method was employed with a slight modification. The AChE and BchE with ~0.02 U/mL were reacted with 0.5 mM ATCI and BTCI, respectively, followed by addition of 0.5 mM DTNB. […] In the inhibition assay, the enzyme and the compound were preincubated in reaction buffer for 15 min, followed by adding substrates and DTNB.

MAO-A = molecular target: T1, MAO-A (Homo sapiens, UniProt P21397); assay: MAO-A enzyme inhibition assay (kynuramine substrate); assay type: biochemical; conditions: mean ± SD; for remaining activity at 10 µM: read-out: Residual Activities at 10 μM (%) MAO-A
T1 construct: purchased Sigma Aldrich
T1 sequence (P21397 1-527): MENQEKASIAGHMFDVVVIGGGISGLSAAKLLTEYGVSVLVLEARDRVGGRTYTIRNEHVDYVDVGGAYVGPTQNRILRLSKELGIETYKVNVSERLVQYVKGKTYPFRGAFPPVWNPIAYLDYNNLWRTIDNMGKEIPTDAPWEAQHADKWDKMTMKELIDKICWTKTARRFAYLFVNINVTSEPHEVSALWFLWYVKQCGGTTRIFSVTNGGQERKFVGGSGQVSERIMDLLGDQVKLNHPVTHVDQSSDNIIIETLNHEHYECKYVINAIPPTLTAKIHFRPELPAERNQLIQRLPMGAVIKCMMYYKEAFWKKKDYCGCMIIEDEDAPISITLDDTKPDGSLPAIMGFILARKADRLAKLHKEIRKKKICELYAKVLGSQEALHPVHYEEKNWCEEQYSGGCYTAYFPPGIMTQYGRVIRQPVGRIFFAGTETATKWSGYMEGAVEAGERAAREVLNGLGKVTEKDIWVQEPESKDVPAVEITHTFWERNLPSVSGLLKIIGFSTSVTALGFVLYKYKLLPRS
Method: (§2) MAO assays were performed as described previously, i.e., ~0.09 U/mL of MAO-A and MAO-B were reacted with 0.06 mM kynuramine and 0.3 mM benzylamine, respectively, in 50 mM sodium phosphate (pH 7.2). […] For inhibition assay, the compounds were dissolved in DMSO and added into the reaction mixture. The final concentration of DMSO in the reaction mixture was less than 1% to avoid solvent disturbance.

AChE = AChE (Electrophorus electricus, UniProt O42275); assay: AChE inhibition assay (Ellman method, ATCI); assay type: biochemical; conditions: for remaining activity at 10 µM / Residual Activities at 10 μM (%) AChE: 10 μM compound, mean ± SD; for remaining activity at 10 µM: read-out: Residual Activities at 10 μM (%) AChE; for SI (ChE): AChE selectivity over BChE, based on IC50 values
AChE, sequence (O42275 24-633): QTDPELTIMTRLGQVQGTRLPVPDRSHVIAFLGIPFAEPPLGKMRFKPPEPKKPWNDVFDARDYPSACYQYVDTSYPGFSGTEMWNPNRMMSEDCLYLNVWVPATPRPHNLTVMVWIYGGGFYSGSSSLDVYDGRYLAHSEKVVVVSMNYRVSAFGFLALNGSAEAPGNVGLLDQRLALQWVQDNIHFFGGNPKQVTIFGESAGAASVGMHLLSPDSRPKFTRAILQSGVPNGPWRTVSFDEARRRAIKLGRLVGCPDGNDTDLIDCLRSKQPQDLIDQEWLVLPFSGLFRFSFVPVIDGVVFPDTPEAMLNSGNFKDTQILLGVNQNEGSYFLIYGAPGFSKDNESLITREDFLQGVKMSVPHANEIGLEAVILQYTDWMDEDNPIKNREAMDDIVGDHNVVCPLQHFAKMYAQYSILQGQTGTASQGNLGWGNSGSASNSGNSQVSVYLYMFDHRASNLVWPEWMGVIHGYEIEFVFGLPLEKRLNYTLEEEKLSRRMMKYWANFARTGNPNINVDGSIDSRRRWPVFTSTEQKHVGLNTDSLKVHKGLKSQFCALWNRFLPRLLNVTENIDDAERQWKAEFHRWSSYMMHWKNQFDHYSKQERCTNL
Method: as §1

MAO-B = molecular target: T2, MAO-B (Homo sapiens, UniProt P27338); assay: MAO-B enzyme inhibition assay (benzylamine substrate); assay type: biochemical; conditions: for remaining activity at 10 µM: read-out: Residual Activities at 10 μM (%) MAO-B; for SI (MAO): MAO-B selectivity over MAO-A, based on IC50 values
T2 construct: purchased Sigma Aldrich
T2 sequence (P27338 1-520): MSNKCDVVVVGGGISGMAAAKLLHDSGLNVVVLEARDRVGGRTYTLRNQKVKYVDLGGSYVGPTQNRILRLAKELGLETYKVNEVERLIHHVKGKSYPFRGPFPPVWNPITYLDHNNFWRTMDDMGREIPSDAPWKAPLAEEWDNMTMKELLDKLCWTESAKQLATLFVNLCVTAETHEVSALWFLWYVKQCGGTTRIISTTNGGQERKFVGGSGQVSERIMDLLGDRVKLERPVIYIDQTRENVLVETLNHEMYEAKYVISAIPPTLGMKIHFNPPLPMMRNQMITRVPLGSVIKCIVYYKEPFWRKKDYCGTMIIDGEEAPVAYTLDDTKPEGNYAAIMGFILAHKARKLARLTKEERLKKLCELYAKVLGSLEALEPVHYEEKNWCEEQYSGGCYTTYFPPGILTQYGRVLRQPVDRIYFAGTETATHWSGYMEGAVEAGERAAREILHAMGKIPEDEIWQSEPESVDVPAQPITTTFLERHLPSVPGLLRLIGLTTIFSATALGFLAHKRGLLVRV
Method: as §2

BChE, sequence (P81908 whole entry): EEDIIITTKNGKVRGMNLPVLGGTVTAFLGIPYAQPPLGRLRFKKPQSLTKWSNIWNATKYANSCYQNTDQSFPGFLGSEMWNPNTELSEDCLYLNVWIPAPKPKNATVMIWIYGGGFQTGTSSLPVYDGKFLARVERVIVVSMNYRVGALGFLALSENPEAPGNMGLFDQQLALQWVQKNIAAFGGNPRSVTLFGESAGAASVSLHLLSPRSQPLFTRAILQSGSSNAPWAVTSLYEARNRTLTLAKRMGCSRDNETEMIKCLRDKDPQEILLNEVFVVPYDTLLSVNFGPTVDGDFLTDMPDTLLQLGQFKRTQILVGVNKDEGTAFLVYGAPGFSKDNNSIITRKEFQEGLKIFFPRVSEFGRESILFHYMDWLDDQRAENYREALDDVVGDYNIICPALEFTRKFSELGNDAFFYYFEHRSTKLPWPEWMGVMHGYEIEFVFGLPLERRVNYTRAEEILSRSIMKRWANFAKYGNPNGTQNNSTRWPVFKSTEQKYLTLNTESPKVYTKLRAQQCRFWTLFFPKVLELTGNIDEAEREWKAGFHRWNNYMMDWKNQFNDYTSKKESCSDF

SMILES	remaining activity at 10 µM (BChE)	remaining activity at 10 µM (MAO-A; 10 μM compound)	IC50 (MAO-A)	remaining activity at 10 µM (AChE)	SI (ChE) (AChE)	remaining activity at 10 µM (MAO-B; 10 μM compound, mean ± SD)	SI (MAO) (MAO-B)	IC50 (MAO-B; mean ± SD)	Residual Activities at 10 μM (%) AChE (AChE)	Residual Activities at 10 μM (%) MAO-B (MAO-B; 10 μM compound, mean ± SD)	Residual Activities at 10 μM (%) MAO-A (MAO-A; 10 μM compound)
CN1CCN(c2ccc(C(=O)/C=C/c3ccc(C#N)cc3)cc2)CC1 [Compound 2d, (E)-4-(3-(4-(4-methylpiperazin-1-yl)phenyl)-3-oxoprop-1-en-1-yl)benzonitrile]	71.5 ± 5.25%	72.3 ± 2.5%	> 40 µM	24.3 ± 0.95%	10.38	16.7 ± 4.71%	18.18	2.2 ± 0.06 µM	–	–	–
CN1CCN(c2ccc(C(=O)/C=C/c3ccc(N(C)C)cc3)cc2)CC1 [Compound 2f, (E)-3-(4-(dimethylamino)phenyl)-1-(4-(4-methylpiperazin-1-yl)phenyl)prop-2-en-1-one]	76.5 ± 3.35%	83.6 ± 4.22%	> 40 µM	–	>13.20	21.3 ± 3.77%	12.16	3.29 ± 0.08 µM	26.37 ± 1.85%	–	–
CC(C)c1ccc(/C=C/C(=O)c2ccc(N3CCN(C)CC3)cc2)cc1 [Compound 2e, (E)-3-(4-isopropylphenyl)-1-(4-(4-methylpiperazin-1-yl)phenyl)prop-2-en-1-one]	49.3 ± 1.28%	60.6 ± 3.98%	16.2 ± 1.74 µM	–	3.83	44.1 ± 3.04%	1.94	8.36 ± 0.39 µM	17.75 ± 1.85%	–	–
CN1CCN(c2ccc(C(=O)/C=C/c3cc(C(F)(F)F)ccc3Cl)cc2)CC1 [Compound 2o, (E)-3-(2-chloro-5-(trifluoromethyl)phenyl)-1-(4-(4-methylpiperazin-1-yl)phenyl)prop-2-en-1-one]	6.46 ± 3.05%	92.5 ± 4.23%	> 40 µM	37.6%	0.31	22.9 ± 2.26%	12.50	3.2 ± 0.32 µM	–	–	–
CN1CCN(c2ccc(C(=O)/C=C/c3ccc(Cl)c(C(F)(F)F)c3)cc2)CC1 [Compound 2l, (E)-3-(4-chloro-3-(trifluoromethyl)phenyl)-1-(4-(4-methylpiperazin-1-yl)phenyl)prop-2-en-1-one]	73 ± 1.75%	85.9 ± 1.66%	> 40 µM	68.5 ± 1.32%	1.85	–	28.37	1.41 ± 0.04 µM	–	0.00 ± 1.79%	–
COc1cc(/C=C/C(=O)c2ccc(N3CCN(C)CC3)cc2)ccc1F [Compound 2m, (E)-3-(4-fluoro-3-methoxyphenyl)-1-(4-(4-methylpiperazin-1-yl)phenyl)prop-2-en-1-one]	66.8 ± 2.1%	78.8 ± 1.66%	> 40 µM	27.6 ± 1.9%	4.18	39.9 ± 6.26%	5.92	6.76 ± 0.82 µM	–	–	–
COc1ccc(/C=C/C(=O)c2ccc(N3CCN(C)CC3)cc2)c(C(F)(F)F)c1 [Compound 2p, (E)-3-(4-methoxy-2-(trifluoromethyl)phenyl)-1-(4-(4-methylpiperazin-1-yl)phenyl)prop-2-en-1-one]	28.9 ± 4.08%	44.5 ± 3.31%	6.67 ± 0.63 µM	37.8 ± 7.64%	1.06	15 ± 3.93%	3.06	2.18 ± 0.01 µM	–	–	–
CN1CCN(c2ccc(C(=O)/C=C/c3cc(C(F)(F)F)cc(C(F)(F)F)c3)cc2)CC1 [Compound 2j, (E/Z)-3-(3,5-bis(trifluoromethyl)phenyl)-1-(4-(4-methylpiperazin-1-yl)phenyl)prop-2-en-1-one]	86 ± 1.04%	97.1 ± 4.04%	> 40 µM	57.1 ± 5.39%	>2.60	67.8 ± 5.36%	2.55	15.7 ± 1.17 µM	–	–	–
CN1CCN(c2ccc(C(=O)/C=C/c3ccc(OC(F)F)cc3)cc2)CC1 [Compound 2h, (E)-3-(4-(difluoromethoxy)phenyl)-1-(4-(4-methylpiperazin-1-yl)phenyl)prop-2-en-1-one]	73.9 ± 3.35%	55.2 ± 4.12%	> 40 µM	38 ± 0.92%	>6.87	17.3 ± 3.77%	6.51	6.14 ± 0.43 µM	–	–	–
CSc1ccc(/C=C/C(=O)c2ccc(N3CCN(C)CC3)cc2)cc1 [Compound 2g, (E)-1-(4-(4-methylpiperazin-1-yl)phenyl)-3-(4-(methylthio)phenyl)prop-2-en-1-one]	74.7 ± 4.48%	97.2 ± 1.99%	> 40 µM	50.4 ± 4.43%	>3.22	40 ± 1.67%	5.93	6.74 ± 0.03 µM	–	–	–
CN1CCN(c2ccc(C(=O)/C=C/c3ccc(F)cc3F)cc2)CC1 [Compound 2q, (E)-3-(2,4-difluorophenyl)-1-(4-(4-methylpiperazin-1-yl)phenyl)prop-2-en-1-one]	55.3 ± 0.68%	72.7 ± 3.31%	16.5 ± 1.75 µM	33.78 ± 0.27%	1.71	13.1 ± 2.06%	5.45	3.03 ± 0.13 µM	–	–	–
CN1CCN(c2ccc(C(=O)/C=C/c3cc(F)cc(C(F)(F)F)c3)cc2)CC1 [Compound 2i, (E)-3-(3-fluoro-5-(trifluoromethyl)phenyl)-1-(4-(4-methylpiperazin-1-yl)phenyl)prop-2-en-1-one]	63.7 ± 6.24%	114 ± 6.06%	> 40 µM	51.5 ± 4.92%	1.82	20.4 ± 2.47%	17.17	2.33 ± 0.14 µM	–	–	–
CN1CCN(c2ccc(C(=O)/C=C/c3ccc(F)cc3)cc2)CC1 [Compound 2c, (E)-3-(4-fluorophenyl)-1-(4-(4-methylpiperazin-1-yl)phenyl)prop-2-en-1-one]	49.7 ± 3.7%	103 ± 8.84%	> 40 µM	49.4 ± 4.66%	1.79	22.7 ± 1.61%	13.42	2.98 ± 0.18 µM	–	–	–
CN1CCN(c2ccc(C(=O)/C=C/c3ccc(C(F)(F)F)cc3)cc2)CC1 [Compound 2b, (E)-1-(4-(4-methylpiperazin-1-yl)phenyl)-3-(4-(trifluoromethyl)phenyl)prop-2-en-1-one]	58.5 ± 1.38%	–	> 40 µM	19 ± 0.55%	5.92	21 ± 4.02%	12.90	3.1 ± 0.04 µM	–	–	88.19 ± 6.87%
CN1CCN(c2ccc(C(=O)/C=C/c3cccc(C(F)(F)F)c3)cc2)CC1 [Compound 2a, (E)-1-(4-(4-methylpiperazin-1-yl)phenyl)-3-(3-(trifluoromethyl)phenyl)prop-2-en-1-one]	58.6 ± 6.8%	118 ± 7.73%	> 40 µM	34.9 ± 5.19%	2.44	12.8 ± 0.79%	15.50	2.58 ± 0.19 µM	–	–	–
